# Measurements reported in PMC3834928, “SNEDDS Containing Poorly Water Soluble Cinnarizine; Development and in Vitro Characterization of Dispersion, Digestion and Solubilization” (Pharmaceutics, 2012).
# Assays:
# [1] = Solubility of cinnarizine in SNEDDSs, excipients and buffer (excess drug, end-over-end rotation, HPLC); type: physicochemical
# Description: An excess of cinnarizine was added to the SNEDDSs, selected excipients (sesame oil and oleic acid) and 100 mM TRIS maleate buffer, pH 6.5. The resulting suspensions were placed in an end-over-end rotating device protected from light at 25 °C for the SNEDDSs and at 37 °C for the excipients and buffer; the temperatures were selected for storage purpose and for its physiological relevance, respectively. Samples were withdrawn at specified time points, i.e., 28, 50, and 72 h for the SNEDDSs, 22 h and 48 h for the excipients, and at 51 h and 75 h for the buffer. Samples were centrifuged at 15,000 rpm for 45 min (Biofuge 15, Hereaus-Sepatech, Oterode, Germany). Between two and three drops of supernatant were weighed in a 10 mL volumetric flask and diluted with ethanol. This solution was further diluted with mobile phase to an appropriate concentration. Samples from the buffer were diluted with mobile phase. Quantification of cinnarizine was performed as described in the analytical section. The determination of solubility was considered attained when samples from two consecutive time points varied by less than 5%. The solubilities were determined in triplicate.
# (§1) The concentration of cinnarizine was determined using a HPLC method. A HPLC system (Hitachi, Merck, Darmstadt, Germany) equipped with a D-7000 interface, an L-7200 autosampler, a L-7100 pump, a L-7300 column oven (35 °C), and a L-7400 UV detector or a L-7480 fluorescence detector. Data was processed by using HPLC System Manager Version 4.0 from Merck (Darmstadt, Germany). Chromatographic separation was obtained using a Luna C18 150 × 4.6 mm, 5 µm, column and a C18 guard column (Phenomenex, Torrance, CA, USA). The mobile phase consisted of 50% (v/v) acetonitrile and 50% (v/v) 20 mM ammonium dihydrogen phosphate monobasic buffer, pH 4.5. The temperature of the column was maintained at 35 °C and the flow rate and injection volume were 1 mL/min and 25 µL, respectively. The UV detection was carried out at 253 nm and quantification was performed from peak areas using a six point linear standard curve ranging from 0.25–4 µg/mL.
# [2] = parameters: method as in PMID 7616366; settings: dogs, n = 4, mean ± SEM; cited from earlier work
# [3] = cited from earlier work
# [4] = Colloidal dispersion of SNEDDSs in FaSSGF pH 1.6 (USP II apparatus); type: physicochemical; settings: FaSSGF pH 1.6, 37 °C, during the experiment (60 min), all four SNEDDSs
# Description: as §1
# Colloidal dispersion studies were performed in 250 mL fasted-state, simulated gastric fluid (FaSSGF) at pH 1.6. […] A quantity of 1 g of each SNEDDS containing 25 mg cinnarizine was weighed on a watch glass, and the glass with formulation was gently slid down the vessel wall to the bottom of the dissolution vessel and thereby introduced into the dispersion medium. […]
# [5] = cited from earlier work; remark: listed apart in the source
# [6] = log POct/W; cited from earlier work
smiles,measurement,setting,value
"C(=C\c1ccccc1)/CN1CCN(C(c2ccccc2)c2ccccc2)CC1 [Cinnarizine, cinnarizine]",solubility,"[1]; 100 mM TRIS maleate buffer pH 6.5, 37 °C, n = 3, read-out: Aqueous solubility (37 °C)",0.39 ± 0.1 µg/mL
same,Cinnarizine solubility in SNEDDS I,"[1]; in SNEDDS I preconcentrate, 25 °C, mean ± SD (n = 3)",67.4 ± 0.9 mg/g
same,Cinnarizine solubility in SNEDDS II,"[1]; in SNEDDS II preconcentrate, 25 °C, mean ± SD (n = 3)",58.8 ± 0.5 mg/g
same,Cinnarizine solubility in SNEDDS III,"[1]; in SNEDDS III preconcentrate, 25 °C, mean ± SD (n = 3)",36.4 ± 0.7 mg/g
same,Cinnarizine solubility in SNEDDS IV,"[1]; in SNEDDS IV preconcentrate, 25 °C, mean ± SD (n = 3)",28.3 ± 0.8 mg/g
same,Cinnarizine solubility in oleic acid,"[1]; in oleic acid, 37 °C, mean ± SD (n = 3)",335 ± 3 mg/g
same,Cinnarizine solubility in sesame oil,"[1]; in sesame oil, 37 °C, mean ± SD (n = 3)",25.7 ± 0.4 mg/g
same,Bioavailability from a conventional capsule,[2],0.8% ± 0.4%
same,Bioavailability from an aqueous suspension formulation,[2],8% ± 4%
same,Cinnarizine solubility in oleic acid (previous study),"[3]; in oleic acid, 25 °C",237 mg/g
same,Solubility of cinnarizine in water at low pH,[3]; pH 1.3,853 µg/mL
same,Precipitation of cinnarizine during colloidal dispersion,[4],not observed
same,pKa,[5],1.95 [18]
same,Log P,[6],5.77 [16]
CCCCCCCC/C=C\CCCCCCCC(=O)O [oleic acid],pKa in water,[5]; in water,9.85
same,apparent pKa in mixed bile acid/phospholipid micelles,[5]; incorporated into mixed bile acid/phospholipid micelles,6.5
